Data from patent US20130252821A1, “METHODS AND COMPOSITIONS FOR THE TREATMENT AND DIAGNOSIS OF DISEASES CHARACTERIZED BY VASCULAR LEAK, HYPOTENSION, OR A PROCOAGULANT STATE” (Beth Israel Deaconess Medical Center, Inc., priority 2005, published 2013).

System: VEGF
Assay: Serial free VEGF levels in patients on HD IL-2
Format: in vivo, human
Conditions: four patients, single bevacizumab infusion two weeks prior to HD IL-2
From the text: Over a 6 month period at Beth Israel Deaconess Medical Center we prospectively collected discarded serum and plasma samples from oncology patients receiving high dose IL-2. […] After detailing these promising results, we then collected bloods before IL-2 infusion and with each successive days morning labs. Whenever possible, we also obtained discarded blood from all follow up outpatient appointments. All identifying information was removed and data was encoded to protect patient privacy. Clinical data was collected on each patient by chart review. This study was approved by the institutional IRB.

Substance: bevacizumab: a neutralizing antibody to VEGF
- free VEGF levels: low throughout protocol
